ChEMBL document CHEMBL1201862, “PubChem BioAssay data set” (2004)
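96-well plates; 48 h exposure; 5 concentrations. Endpoints by linear interpolation between flanking doses. Not reached: highest tested concentration assigned. Here, GI50 denotes the concentration required for 50% inhibition of growth.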 Activity calls are given as the source filed them. No stated cut-off is given here; in the data, active = GI50 up to about 1.1 µM and inactive = higher.

Columns and labels:
Test in all cases: NCI anticancer screen, dose series, 48 h
NCI-H522 = system: NCI-H522
ACHN = system: ACHN
XF498 = system: XF498
IGROV-1 = system: IGROV-1
MDA-N = system: MDA-N
SK-MEL-28 = system: SK-MEL-28
SW-620 = system: SW-620
HT-29 = system: HT-29
SK-MEL-5 = system: SK-MEL-5
DMS-273 = system: DMS-273
EKVX = system: EKVX
RPMI-8226 = system: RPMI-8226
HOP-62 = system: HOP-62
HL-60 = system: HL-60
HOP-18 = system: HOP-18
UO-31 = system: UO-31
MOLT-4 = system: MOLT-4
MDA-MB-231 = system: MDA-MB-231
Hs-578T = system: Hs-578T
SK-OV-3 = system: SK-OV-3
NCI-H460 = system: NCI-H460
BT-549 = system: BT-549
UACC-62 = system: UACC-62
CAKI-1 = system: CAKI-1
A498 = system: A498
DMS-114 = system: DMS-114
M19-MEL = system: M19-MEL
OVCAR-3 = system: OVCAR-3
LOX IMVI = system: LOX IMVI
SNB-78 = system: SNB-78
T47D = system: T47D
786-0 = system: 786-0
Malme-3M = system: Malme-3M
OVCAR-8 = system: OVCAR-8
TK-10 = system: TK-10
SF-539 = system: SF-539
K562 = system: K562
OVCAR-4 = system: OVCAR-4
KM12 = system: KM12
NCI/ADR-RES = system: NCI/ADR-RES
NCI-H226 = system: NCI-H226
A549 = system: A549
COLO 205 = system: COLO 205
KM-20L2 = system: KM-20L2
M14 = system: M14
HOP-92 = system: HOP-92
HCT-15 = system: HCT-15
MDA-MB-435 = system: MDA-MB-435
SF-295 = system: SF-295
SNB-75 = system: SNB-75
UACC-257 = system: UACC-257
DLD-1 = system: DLD-1
PC-3 = system: PC-3
MCF7 = system: MCF7
HCC 2998 = system: HCC 2998
SNB-19 = system: SNB-19
SN12C = system: SN12C
OVCAR-5 = system: OVCAR-5
NCI-H23 = system: NCI-H23
RXF 393 = system: RXF 393
SR = system: SR
CCRF-CEM = system: CCRF-CEM
HCT-116 = system: HCT-116
SK-MEL-2 = system: SK-MEL-2
DU-145 = system: DU-145
U-251 = system: U-251
SF-268 = system: SF-268

CN1N=C(N)c2cn(C3OC(COP(=O)(O)O)C(O)C3O)c3ncnc1c23 (configuration not stated)
GI50 (NCI-H522): 2050 µM (inactive)
GI50 (ACHN): 3.16 µM (inactive)
GI50 (XF498): 12.4 µM (inactive)
GI50 (IGROV-1): 0.935 µM (active)
GI50 (MDA-N): 38.4 µM (inactive)
GI50 (SK-MEL-28): 194 µM (inactive)
GI50 (SW-620): 91.8 µM (inactive)
GI50 (HT-29): 17.3 µM (inactive)
GI50 (SK-MEL-5): 1080 µM (inactive)
GI50 (DMS-273): 18.9 µM (inactive)
GI50 (EKVX): 7.52 µM (inactive)
GI50 (RPMI-8226): 282 µM (inactive)
GI50 (HOP-62): 23.5 µM (inactive)
GI50 (HL-60): 1.65 µM (inactive)
GI50 (HOP-18): 9.14 µM (inactive)
GI50 (UO-31): 4.97 µM (inactive)
GI50 (MOLT-4): 0.622 µM (active)
GI50 (MDA-MB-231): 10.9 µM (inactive)
GI50 (Hs-578T): 14.1 µM (inactive)
GI50 (SK-OV-3): 0.822 µM (active)
GI50 (NCI-H460): 52.8 µM (inactive)
GI50 (BT-549): 7.48 µM (inactive)
GI50 (UACC-62): 28.4 µM (inactive)
GI50 (CAKI-1): 1.18 µM (inactive)
GI50 (A498): 33.7 µM (inactive)
GI50 (DMS-114): 1620 µM (inactive)
GI50 (M19-MEL): 390 µM (inactive)
GI50 (OVCAR-3): 35.2 µM (inactive)
GI50 (LOX IMVI): 1.03 µM (active)
GI50 (SNB-78): 79.6 µM (inactive)
GI50 (T47D): 0.5 µM (active)
GI50 (786-0): 20.5 µM (inactive)
GI50 (Malme-3M): 136 µM (inactive)
GI50 (OVCAR-8): 1.28 µM (inactive)
GI50 (TK-10): 2.88 µM (inactive)
GI50 (SF-539): 32.4 µM (inactive)
GI50 (K562): 385 µM (inactive)
GI50 (OVCAR-4): 5.86 µM (inactive)
GI50 (KM12): 2980 µM (inactive)
GI50 (NCI/ADR-RES): 4.08 µM (inactive)
GI50 (NCI-H226): 7.41 µM (inactive)
GI50 (A549): 39.7 µM (inactive)
GI50 (COLO 205): 106 µM (inactive)
GI50 (KM-20L2): 58.5 µM (inactive)
GI50 (M14): 7.33 µM (inactive)
GI50 (HOP-92): 0.5 µM (active)
GI50 (HCT-15): 19.7 µM
GI50 (MDA-MB-435): 34.3 µM (inactive)
GI50 (SF-295): 144 µM (inactive)
GI50 (SNB-75): 5.33 µM (inactive)
GI50 (UACC-257): 152 µM (inactive)
GI50 (DLD-1): 1.03 µM (active)
GI50 (PC-3): 0.836 µM (active)
GI50 (MCF7): 1.65 µM (inactive)
GI50 (HCC 2998): 129 µM (inactive)
GI50 (SNB-19): 53.3 µM (inactive)
GI50 (SN12C): 4.24 µM (inactive)
GI50 (OVCAR-5): 9.84 µM (inactive)
GI50 (NCI-H23): 25.9 µM (inactive)
GI50 (RXF 393): 14 µM (inactive)
GI50 (SR): 10.8 µM (inactive)
GI50 (CCRF-CEM): 13 µM (inactive)
GI50 (HCT-116): 41.8 µM (inactive)
GI50 (SK-MEL-2): 8.26 µM (inactive)
GI50 (DU-145): 1.48 µM (inactive)
GI50 (U-251): 379 µM (inactive)
GI50 (SF-268): 55.6 µM (inactive)
